The source of these data is patent publication US20150313892A1, “PHARMACEUTICAL COMPOSITIONS FOR TREATING PAIN ASSOCIATED WITH DYSMENORRHEA” (priority 2014, published 2015).

One data set addresses δ-opioid (Homo sapiens, UniProt P41143). The conditions noted are these: read-out: Binding Constant Ki, δ-opioid; cited from earlier work.
The conditions of data set [1]: in vivo, po; cited from earlier work.
Another data set addresses κ-opioid (Homo sapiens, UniProt P41145). The conditions noted are these: read-out: Binding Constant Ki, κ-opioid; cited from earlier work.
Data set [2] deals with patients with diabetic neuropathy and fibromyalgia. The experiment in a line: Pain relief in diabetic neuropathy and fibromyalgia patients. The conditions noted are these: 400 mg per day, alone.
The next data set addresses NE reuptake (Homo sapiens, UniProt P23975).
Data set [3] has as its system chronic sciatic nerve constriction injury. The conditions noted are these: chronic sciatic nerve constriction injury in rats; cited from earlier work.
In a further data set the target is μ-opioid (Homo sapiens, UniProt P35372). The conditions noted are these: read-out: Binding Constant Ki, μ-opioid; cited from earlier work.
Another data set addresses NMDA. The conditions noted are these: cited from earlier work.
A further data set deals with Sigma. The conditions noted are these: read-out: Binding Constant Ki, Sigma; cited from earlier work.
A further data set deals with 5-HT reuptake (Homo sapiens, UniProt P31645). The conditions noted are these: read-out: Binding Constant Ki, 5-HT, cited from earlier work.
For data set [4] the following is noted: cited from earlier work.
The test system of data set [5] is cellular uptake of dopamine, noradrenaline, or serotonin. The conditions noted are these: cited from earlier work.
A further data set deals with α2δ. The conditions noted are these: read-out: α2δ Binding; cited from earlier work.
Data set [6] has as its system uptake of norepinephrine (NE), serotonin (5-HT) and dopamine. The conditions noted are these: cited from earlier work.
The test system of data set [7] is α or β adrenergic, muscarinic, histaminergic, and dopaminergic receptors. The conditions noted are these: cited from earlier work.
Data set [8] concerns patients with postherpetic neuralgia or painful diabetic neuropathy. The conditions noted are these: oral, cited from earlier work.
Data set [9] deals with transient K^+ channels in hippocampal neurons. The conditions noted are these: read-out: IC50, inhibition of transient K+ channels; cited from earlier work.
A further data set has as its system postoperative patients. The conditions noted are these: intravenous; 30-mg/kg bolus, 10 mg/kg/h infusion for 48 hours; cited from earlier work.
Data set [10] deals with patients with fibromyalgia. The conditions noted are these: fibromyalgia trials, cited from earlier work.
The test system of another data set is patients, pain score. The conditions noted are these: cited from earlier work.
Data set [11] concerns patients with neuropathic pain associated with diabetic peripheral neuropathy. The conditions noted are these: diabetic peripheral neuropathy trials; cited from earlier work.
For data set [12], the system named is persons undergoing third molar surgery. The conditions noted are these: cited from earlier work.
The mark [13] stands for this setting: reuptake inhibition; read-out: Binding Constant Ki, NE; cited from earlier work.
The mark [14] stands for this setting: read-out: Binding Constant Ki, NMDA.
Where [15] appears, read: read-out: Binding Constant Ki, NE; reuptake inhibition; cited from earlier work.

Read-outs that look alike come from different tables or passages of the source. Where only a bound is given, the exact number is not on record here.

Sequence of NE reuptake (P23975 whole entry): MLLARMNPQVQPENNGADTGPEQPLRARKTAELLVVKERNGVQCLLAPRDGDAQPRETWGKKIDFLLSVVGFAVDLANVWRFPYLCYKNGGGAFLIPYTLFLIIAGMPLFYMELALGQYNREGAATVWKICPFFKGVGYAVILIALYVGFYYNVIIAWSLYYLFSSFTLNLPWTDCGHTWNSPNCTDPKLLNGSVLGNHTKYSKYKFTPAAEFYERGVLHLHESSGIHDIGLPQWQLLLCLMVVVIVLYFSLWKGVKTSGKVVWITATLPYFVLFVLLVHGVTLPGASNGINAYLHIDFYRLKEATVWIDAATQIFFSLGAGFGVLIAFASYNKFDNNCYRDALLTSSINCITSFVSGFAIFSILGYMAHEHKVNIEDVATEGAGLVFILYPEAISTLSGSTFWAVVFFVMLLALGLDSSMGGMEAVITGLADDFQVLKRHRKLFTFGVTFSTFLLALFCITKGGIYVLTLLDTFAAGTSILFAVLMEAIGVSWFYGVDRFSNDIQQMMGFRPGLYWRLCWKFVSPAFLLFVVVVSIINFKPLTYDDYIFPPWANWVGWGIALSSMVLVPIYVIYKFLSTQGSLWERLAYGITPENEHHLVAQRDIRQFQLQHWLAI
Sequence of δ-opioid (P41143 whole entry): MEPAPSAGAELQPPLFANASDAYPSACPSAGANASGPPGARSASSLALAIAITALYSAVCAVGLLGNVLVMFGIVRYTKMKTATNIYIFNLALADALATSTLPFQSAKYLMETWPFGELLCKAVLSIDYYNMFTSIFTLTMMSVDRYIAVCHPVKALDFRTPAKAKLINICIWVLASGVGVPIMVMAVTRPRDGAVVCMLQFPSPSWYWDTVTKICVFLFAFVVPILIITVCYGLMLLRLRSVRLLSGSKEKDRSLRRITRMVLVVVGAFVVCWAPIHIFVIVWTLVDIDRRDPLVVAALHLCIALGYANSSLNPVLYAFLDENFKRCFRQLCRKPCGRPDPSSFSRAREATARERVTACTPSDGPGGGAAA
Sequence of κ-opioid (P41145 whole entry): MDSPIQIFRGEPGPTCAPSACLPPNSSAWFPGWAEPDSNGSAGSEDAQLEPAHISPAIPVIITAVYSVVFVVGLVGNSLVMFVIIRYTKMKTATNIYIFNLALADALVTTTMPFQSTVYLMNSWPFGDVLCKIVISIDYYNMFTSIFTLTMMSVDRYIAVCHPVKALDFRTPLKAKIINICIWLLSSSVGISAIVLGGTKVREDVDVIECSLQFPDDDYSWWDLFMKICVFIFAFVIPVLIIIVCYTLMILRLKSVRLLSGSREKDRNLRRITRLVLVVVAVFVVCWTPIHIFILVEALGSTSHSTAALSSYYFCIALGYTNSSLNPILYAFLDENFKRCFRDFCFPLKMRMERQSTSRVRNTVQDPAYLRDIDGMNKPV
Sequence of 5-HT reuptake (P31645 whole entry): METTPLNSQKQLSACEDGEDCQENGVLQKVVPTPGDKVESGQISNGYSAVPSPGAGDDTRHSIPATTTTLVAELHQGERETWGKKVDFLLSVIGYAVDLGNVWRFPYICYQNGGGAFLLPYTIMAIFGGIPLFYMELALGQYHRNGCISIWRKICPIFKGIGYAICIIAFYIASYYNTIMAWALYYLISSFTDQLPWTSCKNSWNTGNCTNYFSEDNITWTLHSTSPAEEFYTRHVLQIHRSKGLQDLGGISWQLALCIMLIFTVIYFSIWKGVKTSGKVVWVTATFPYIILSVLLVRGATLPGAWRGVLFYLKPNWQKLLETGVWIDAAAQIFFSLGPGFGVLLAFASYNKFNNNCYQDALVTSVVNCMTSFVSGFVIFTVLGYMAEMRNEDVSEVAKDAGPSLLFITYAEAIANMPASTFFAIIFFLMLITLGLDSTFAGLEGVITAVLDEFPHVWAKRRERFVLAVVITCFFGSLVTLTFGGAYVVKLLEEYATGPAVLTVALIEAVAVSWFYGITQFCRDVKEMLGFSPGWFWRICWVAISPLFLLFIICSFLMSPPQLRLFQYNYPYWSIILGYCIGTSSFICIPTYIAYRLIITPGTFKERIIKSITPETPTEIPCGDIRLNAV
Sequence of μ-opioid (P35372 whole entry): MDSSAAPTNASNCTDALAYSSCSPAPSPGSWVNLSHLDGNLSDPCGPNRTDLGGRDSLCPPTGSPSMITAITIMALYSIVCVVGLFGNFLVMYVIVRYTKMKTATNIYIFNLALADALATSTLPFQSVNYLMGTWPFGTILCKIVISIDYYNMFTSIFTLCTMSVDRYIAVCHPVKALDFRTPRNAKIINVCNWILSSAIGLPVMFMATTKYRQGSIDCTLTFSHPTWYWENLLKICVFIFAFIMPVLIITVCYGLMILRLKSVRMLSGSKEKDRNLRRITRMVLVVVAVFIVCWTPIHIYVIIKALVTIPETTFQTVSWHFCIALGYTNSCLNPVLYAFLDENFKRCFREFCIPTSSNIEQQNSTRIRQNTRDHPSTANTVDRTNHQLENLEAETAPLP

As for `COc1cccc(C2(O)CCCCC2CN(C)C)c1` (racemic) [(±) Tramadol, (+/−)-trans(RR,SS)-2-[(di-methylamino)methyl]-1-(3-methoxyphenyl)cyclohexanol], the results for the Ki on δ-opioid, at κ-opioid and at NE reuptake (setting [13]) were 57700 nM, 42700 nM and 785 nM, respectively. In addition, the “duration of the analgesic effect” value in data set [1] was “about 6 hours”. Besides, the reduction in pain in data set [2] is listed as 30-40%.
On to `COc1ccc(C(CN(C)C)C2(O)CCCCC2)cc1` (racemic) [Venlafaxine, (R/S)-1-[2-(dimethylamino)-1-(4-methoxyphenyl)ethyl]cyclohexanol], for which the “reversing chronic neuropathic pain secondary to thermal hyperalgesia; hyperalgesia of neuropathic pain” value in [3] is “effective”.
Take `COc1ccc2c(c1)[C@@]13CCCC[C@H]1[C@@H](C2)N(C)CC3` [Dextromethorphan, (+)-3-methoxy-N-methylmorphinan]: the Ki is 1280 nM at μ-opioid, 11500 nM at δ-opioid, 2910 nM on NMDA (setting [14]) and 365 nM on Sigma.
Regarding `CN1CC[C@@]23CCCC[C@@H]2[C@@H]1Cc1ccc(O)cc13` [Dextrorphan], the Ki on δ-opioid is 34700 nM; at 5-HT reuptake (reuptake inhibition), 401 nM; on κ-opioid it was 5950 nM; at NE reuptake (setting [15]), 340 nM.
For `NCC1(CC(=O)O)CCCCC1` [Gabapentin], the Bioavailability entry in data set [4] (900 mg/day given in 3 divided doses) is given as “approximately 60%”; in [4] (1200 mg/day given in 3 divided doses), about 47%; in [4] (2400 mg/day given in 3 divided doses), about 34%; in data set [4] (3600 mg/day given in 3 divided doses), about 33%; in [4] (4800 mg/day given in 3 divided doses), about 27%. Further, the “apparent volume of distribution” value in data set [4] (after 150 mg intravenous administration, Mean±SD) is 58 ± 6 L. For the same compound, the “increase in AUC and Cmax with food” value in data set [4] (food effect) is 14%. Moreover, the “bound to plasma protein” value in data set [4] (in vivo) is given as “Less than 3%”. The metabolism in humans entry in data set [4] (in vivo) is given as “not appreciably metabolized”. For the same compound, the “steady-state predose (Cmin) concentration in cerebrospinal fluid, of corresponding plasma concentration” value in [4] (patients with epilepsy) is recorded as “approximately 20%”. Besides, in data set [4] (unaltered by dose or multiple dosing), the elimination half-life is 5 to 7 h. Besides, the “cellular uptake of dopamine, noradrenaline, or serotonin” value in data set [5] is “did not alter”. Besides, the Ki on α2δ was 59 nM.
As for `CN1CC[C@]23CCCC[C@H]2[C@H]1Cc1ccc(O)cc13` [Levorphanol], the Ki was 3.61 nM on δ-opioid, 86.3 nM on 5-HT reuptake, 4.2 nM at κ-opioid and 1210 nM on NE reuptake (setting [15]).
Take `C[C@]12N[C@H](Cc3ccccc31)c1ccccc12` [MK-801]: the Ki at NMDA (high, read-out: Binding Constant Ki, NMDA (high)) is […]; at NMDA (low, read-out: Binding Constant Ki, NMDA (low)) it was […].
Consider `CCN(CC)C(=O)C1(c2ccccc2)CC1CN` (centres unmarked) [Milnacipran], for which, in data set [6], the uptake of dopamine result was “does not affect”. Moreover, the Ki on NMDA (setting [14]) is 6300 nM. In [7], the “affinity for α or β adrenergic, muscarinic, histaminergic, and dopaminergic receptors” value is listed as “no affinity”.
Consider `CN(C)CCC=C1c2ccccc2CCc2ccccc21` [amitriptyline], for which the “patients with good or moderate response” value in data set [8] (painful diabetic neuropathy) is “three-quarters”; in [8] (postherpetic neuralgia), “about two-thirds”.
Regarding `CN(C)CCCN1c2ccccc2CCc2ccccc21` [imipramine], in data set [9], the IC50 was about 6000 nM.
On to `[Mg]` [magnesium], for which, in the data set with postoperative patients, the “use of narcotics in postoperative patients” value is listed as “reduced the use of narcotics”.
For the compound `CC(C)C[C@H](CN)CC(=O)O` [pregabalin], the “patients discontinued prematurely due to adverse reactions” value in [10] (150-600 mg/day) is 19%; in [11], 9%. The “discontinuation due to dizziness” value in [10] was 6%; in data set [11], 3%. Further, the “discontinuation due to somnolence” value is 3% in data set [10] and 2% in data set [11]. Further, in [10], the “withdrawal due to fatigue, headache, balance disorder, and weight increased, each” value was “approximately 1%”. Further, the “endpoint mean pain score (proportion with at least 50% reduction in pain score increased)” value is on record as “statistically significantly improved” in the data set with patients, pain score (8-week study, 50 and 100 mg three times a day vs placebo); “statistically significantly improved” with patients, pain score (8-week study, 100 or 200 mg three times a day vs placebo, by creatinine clearance); “statistically significantly improved” with patients, pain score (13-week study, 75, 150, 300 mg twice daily vs placebo, creatinine clearance greater than 60 mL/min, all doses); “statistically significantly improved” in the data set on patients, pain score (100 and 200 mg three times a day). Further, the “withdrawal due to asthenia, confusion, and peripheral edema, each” value in data set [11] is reported as “approximately 1%”.
On to `N[C@@H](Cc1c[nH]c2ccccc12)C(=O)O` [tryptophan], for which the “effect on post-operative pain or on the consumption of other analgesics” value in data set [12] is given as “no effect”.
As for O-desmethyltramadol [(±) M1], the Ki at NMDA (setting [14]) is over 16000 nM; at κ-opioid, 242 nM; at NE reuptake (setting [13]) it was 1520 nM.

The IC50 is the point on the concentration scale where inhibition reaches its midpoint.
